Assay results from paper PMC10949855 (Journal of veterinary pharmacology and therapeutics, 2022).
Entries after “also recorded” stand apart in the source; their conditions may differ. Like-named read-outs stand apart in the source and are kept apart here.

Assays:
[1] = tested on: dogs undergoing soft tissue surgery; settings: 0.4 mg/kg IV, ref Gomes et. al., 2020; cited from earlier work
[2] = Pharmacokinetics of butorphanol in plasma; settings: for AUC(0-inf): AUCinf
dogs [3] = settings: cited from earlier work
dogs [4] = settings: SC, ref Pircio et al., 1976; cited from earlier work
healthy dogs [5] = assay: Adverse effects observed after administration; settings: SC 0.4 mg/kg
healthy dogs [6] = assay: Rectal temperature change from baseline; assay type: in vivo, dogs (Beagles); settings: SC 0.4 mg/kg, n=6, P<0.05
dogs [7] = settings: cited from earlier work; remark: listed apart in the source
[8] = both, Beagle, dog, in vivo, iv, 0.4 mg/kg, IV bolus 0.4 mg/kg IV, geometric mean, n=6
[9] = both, Beagle, dog, in vivo, sc, 0.4 mg/kg
[10] = both, Beagle, dog, in vivo, sc, 0.4 mg/kg, SC 0.4 mg/kg, geometric mean, n=6
[11] = 0.4 mg/kg IV, ref Wegner et al., 2008

Question: With `Oc1ccc2c(c1)[C@@]13CCCC[C@@]1(O)[C@@H](C2)N(CC1CCC1)CC3` [butorphanol] as the compound, how does the “analgesia in clinical trial” value [1] read?
Answer: The value was “insufficient analgesia”.

Question: What about the “Css (steady state plasma concentration)” value ([2]; IV CRI: 0.2 mg/kg IV loading dose then 0.2 mg/kg/hr for 8 hours, geometric mean, n=5) of the same compound?
Answer: Its value is 43.1 ng/mL.

Question: And the AUC extrapolated ([2]; IV bolus 0.4 mg/kg IV, geometric mean, n=6)?
Answer: The AUC extrapolated was 1.0%.

Question: And the AUC extrapolated ([2]; SC 0.4 mg/kg, geometric mean, n=6)?
Answer: Its AUC extrapolated is 2.5%.

Question: And the half-life ([2]; both, Beagle, dog, in vivo, half-life, dogs, overall statement of abstract)?
Answer: The half-life was ~1.5 h.

Question: And the concentration at 5 min ([2]; both, Beagle, dog, in vivo, iv, 0.4 mg/kg)?
Answer: The concentration at 5 min was 144 ng/mL.

Question: And the AUC(0-inf) [2, 8]?
Answer: Its AUC(0-inf) is 143 ng·h/mL.

Question: What about the C0 ([2]; both, Beagle, dog, in vivo, iv, 0.4 mg/kg, C0, IV bolus 0.4 mg/kg IV, geometric mean, n=6) of the same compound?
Answer: Its C0 is 183 ng/mL.

Question: And the clearance ([2]; both, Beagle, dog, in vivo, iv, 0.4 mg/kg, Cl, IV bolus 0.4 mg/kg IV, geometric mean, n=6)?
Answer: Its clearance is 46.5 mL/min/kg.

Question: What about the MRT [2, 8] of the same compound?
Answer: Its MRT is 1.26 h.

Question: What about the half-life ([2]; both, Beagle, dog, in vivo, iv, 0.4 mg/kg, T ½ λz, IV bolus 0.4 mg/kg IV, geometric mean, n=6) of the same compound?
Answer: Its half-life is 1.47 h.

Question: And the Vd ([2]; both, Beagle, dog, in vivo, iv, 0.4 mg/kg, Vss, IV bolus 0.4 mg/kg IV, geometric mean, n=6)?
Answer: The Vd was 3.51 L/kg.

Question: And the Vd ([2]; both, Beagle, dog, in vivo, iv, 0.4 mg/kg, Vz, IV bolus 0.4 mg/kg IV, geometric mean, n=6)?
Answer: The Vd was 5.91 L/kg.

Question: And the k el ([2]; both, Beagle, dog, in vivo, iv, 0.4 mg/kg, λz, IV bolus 0.4 mg/kg IV, geometric mean, n=6)?
Answer: The k el was 0.000131 s⁻¹.

Question: And the half-life ([2]; both, Beagle, dog, in vivo, iv, T ½ λz, IV CRI: 0.2 mg/kg IV loading dose then 0.2 mg/kg/hr for 8 hours, geometric mean, n=5)?
Answer: The half-life was 1.42 h.

Question: What about the k el ([2]; both, Beagle, dog, in vivo, iv, λz, IV CRI: 0.2 mg/kg IV loading dose then 0.2 mg/kg/hr for 8 hours, geometric mean, n=5) of the same compound?
Answer: The k el was 0.000136 s⁻¹.

Question: And the Cmax [2, 9]?
Answer: The Cmax was 74.2 ng/mL.

Question: What about the TMAX [2, 9] of the same compound?
Answer: Its TMAX is 0.21 h.

Question: And the AUC(0-inf) [2, 10]?
Answer: The AUC(0-inf) was 123 ng·h/mL.

Question: What about the MRT [2, 10] of the same compound?
Answer: Its MRT is 2.09 h.

Question: And the half-life ([2]; both, Beagle, dog, in vivo, sc, 0.4 mg/kg, T ½ λz, SC 0.4 mg/kg, geometric mean, n=6)?
Answer: The half-life was 1.83 h.

Question: And the k el ([2]; both, Beagle, dog, in vivo, sc, 0.4 mg/kg, Λz, SC 0.4 mg/kg, geometric mean, n=6)?
Answer: The k el was 0.000105 s⁻¹.

Question: And the “thermal antinociception compared to hydromorphone at 0.1 mg/kg IV” value (dogs [3]; [11])?
Answer: The value was “equianalgesic peak effects and duration”.

Question: And the “time of peak effect, thermal antinociception” value (dogs [3]; [11])?
Answer: The value was 1 h.

Question: What about the “time of peak antinociceptive effect after IV administration” value (dogs [3]; IV, ref Wegner et al 2008) of the same compound?
Answer: The value was 60 min.

Question: What about the “dose of maximum effect on miosis” value (dogs [4]) of the same compound?
Answer: The value was 0.25 mg/kg.

Question: And the hypersalivation (healthy dogs [5])?
Answer: Its hypersalivation is 2/6.

Question: What about the “statistically significant decrease in rectal temperature compared to baseline” value (healthy dogs [6]) of the same compound?
Answer: Its value is “did not occur”.

Question: What about the “antinociception, colonic distension model” value (dogs [7]; 0.4 mg/kg IV, 30 minutes (latest time point assessed), ref Houghton, et. al., 1991) of the same compound?
Answer: Its value is “significant effects; also recorded: significant antinociception”.

Question: And the “antinociception, colonic distension model” value (dogs [7]; 0.8 mg/kg SC, 45 minutes, ref Sawyer, et. al. 1991)?
Answer: The value was “did produce a significant effect; also recorded: significant antinociception”.

Question: And the “response, colonic distension nociceptive model” value (dogs [7]; doses up to 0.4 mg/kg SC, 45 minutes, ref Sawyer et al., 1991)?
Answer: Its value is “failed to produce a significant response”.
